Patent publication US20030077689A1, “Microbial growth variations” (priority 1999, published 2003)

System: Staphylococcus aureus
Experiment: Replicate-well microdilution growth test (32 replicates per antibiotic concentration), growth ranked by viability in culture and direct epifluorescence
Format: cell-based
Settings: for growth response of replicate wells: 5 hours at 37° C.
Source text: Format: In general terms the entire series of tests followed the methods for use of microdilution plates. Each of the eight antibiotic concentrations was represented by 32 replicate wells, thus amounting to 8×32[256] test wells in a three plate array.
Organisms: Two cultures of Staphylococcus aureus, with one isolated from plates containing penicillin supplemented agar to provide cells of known β lactamase activity.
Inoculum: A target level of 10^2 cells/wells was selected to test an adequate number of organisms within each treatment. In the examples 2-4 the aim was to include an increasing proportion of resistant/β lactamase positive cells. Preparation by dilutions at these levels will undoubtedly be prone to errors.
Incubation: Sealed plates incubated for 5 hours at 37° C. [previously shown to provide significant growth]. At the end of incubation well contents […] were transferred to 200 μl using individual sterile pipette tips [i.e. one/well].
A 100 μl sample of diluted well contents was plated and spread on culture plates. The growth, corresponding to the situation at 5 hours, was assessed after incubation of the culture plates overnight.
ii. Direct Epifluorescence Method
A second 100 μl sample was filtered through a commercially available 0.2μ nuclepore membrane. This non-fluorescent, black filter was supported on a 5.0μcellulosic membrane filter. Discrete 3.0 mm diameter filter zones were created by attaching pre-punched black adhesive tape to the membranes. After filtration the zones were stained with 0.01% w/v Acriflavine™ in phosphate buffer at pH 7.2 [filtered immediately before use]. Direct observation, using an epifluorescence microscope resembles the DEFT method described by Pettifer G L Rodrigues U K [1982] J.Appl.Bact. 53:323-329. Using a large numerical aperture×45 objective it is relatively simple to rank the estimated density of growth.
The viability test depicts growth responses in terms of organisms recovered and subsequently able to produce colonies on a secondary culture plate. Direct epifluorescence/filtration does constitute rapid detection but in this manual form is both cumbersome and labour intensive. Within these constraints both methods served to assign rankings to the growth response of every well. The two methods were adequate to indicate the presence of growth.

In the case of Penicillin, the “growth response of replicate wells” value (Example 1 (no resistant cells added), antibiotic levels higher than 0.015 μg/ml) was “no evidence of growth”, the “growth response of replicate wells” value (Examples 1-4, antibiotic concentration 0.004 μg/ml, 32 replicate wells) was “all 32 replicate wells exhibit continued growth” and the “growth response of replicate wells” value (Examples 1-4, antibiotic concentration 0.015 μg/ml) was “the population in some wells exhibits sensitivity”. The “growth response of replicate wells” value (Examples 2, 3 and 4 (inoculum with increasing proportion of resistant/β lactamase positive cells)) was “an appreciable number of wells show low grade growth” and the “sensitivity of resistant sub-populations in some wells” value (Examples 2, 3 and 4, antibiotic concentration 0.250 μg/ml) was “insensitive”.
